Measured values from patent US20150159180A1, “PROCESS FOR PRODUCTION OF C[…] USING PICHIA CARIBBICA AND ITS APPLICATION FOR QUORUM SENSING INHIBITION” (COUNCIL OF SCIENTIFIC & INDUSTRIAL RESEARCH, priority 2012, published 2015).

How the values were obtained:
[1] = system: Chromobacterium violaceum mutant CV026; assay: Violacein inhibition assay (qualitative), agar well; format: cell-based; conditions: QS signal molecule 12.5 μM, 30° C., 24 hours, FIG. 5
Procedure: This assay has been designed in such a way that a zone inhibition of Violacein synthesis can be seen around the agar well containing the probable QS Inhibitor. Chromobacterium violaceum mutant CV026 is used as the test organism which has the ability to respond to a variety of signal molecules. The QS signal molecule (12.5 μM) is added to 10 ml of Luria bertani soft agar containing 100 μl of overnight culture of CV026. The soft agar is then overlayed onto basal LA plate, and a 4 mm diameter well is dug in the centre of the plate using a sterile cork borer after the overlay is set. To the agar well 75 μl of appropriate concentration of the compound under investigation was added, and the plates were incubated at 30° C. for 24 hours. The diameter of zone of Violacein inhibition was then measured. Pure xylitol from sigma was used for comparative analysis.

[2] = system: Chromobacterium violaceum CV026; assay: Violacein inhibition assay (quantitative), tube assay; format: cell-based
Procedure: This assay is based on a similar principle to the one described above, that is the presence of any quorum sensing inhibitor will quantitatively decrease the production of the purple pigment violacein which can then be estimated colorimetrically. This is a tube assay in which 100 μl of overnight culture of CV026 was inoculated in 10 ml LB broth containing the QS signal molecule (namely C6-HSL, C8-HSL or 3-oxo-C6-HSL) at appropriate concentrations. The test compound, Pichia sp. synthesized xylitol in the present invention, was then added at increasing concentrations in a series of test tubes. The violacein produced was extracted from the culture broth by dissolution of the pigment in DMSO and separating it from the cell mass by centrifugation. The amount of xylitol required to inhibit or substantially decrease the purple pigment production could be quantitatively estimated by measuring the optical density at 570 nm. Appropriate positive and negative controls were used. All experiments were done in triplicates for checking reproducibility.

[3] = increasing concentration of xylitol, CV026

OC[C@@H](O)[C@H](O)[C@@H](O)CO [Pichia xylitol, xylitol]
zone of inhibition of Violacein synthesis [1]: zone of inhibition of Violacein synthesis around the agar well
antagonism of AHL signal and receptor interaction ([2]; CV026 based AHL antagonism assay, C6-HSL, C8-HSL and 3-oxo-C6-HSL): able to antagonize not one but three different AHL signal and receptor interaction
inhibitory effect on the organism [2, 3]: not inhibitory to the organism
quorum sensing signal reception [2, 3]: severely impaired quorum sensing signal reception
inhibition of Violacein production ([2]; increasing concentrations of xylitol, optical density at 570 nm, FIG. 6): could quantitatively inhibit Violacein production
